Patent US11390609B2, “Rho-associated protein kinase inhibitor, pharmaceutical composition comprising same, and preparation method and use thereof” (BEIJING TIDE PHARMACEUTICAL CO., LTD., priority 2017, dated 2022)

Biological target: ROCK1 (Homo sapiens (Human), UniProt Q13464)
Assay: ROCK1 kinase IC50 assay (biological test method similar to the ROCK2 assay)
Assay type: biochemical
Method: The kinase IC50 was determined by a commercialized CISBIO kinase detection kit, HTRF KinEASE-STK S2 kit (62ST2PEC). ROCK2 (01-119) employed in the reaction was purchased from Carna Biosciences.
Before the assay, the following working solutions as needed were formulated with corresponding reagents according to the instruction of the kinase detection kit: 1×kinase buffer, 5×STK-52 substrate working solution (1.5 μM) and 5×ATP working solution (1.5 μM), 5×ROCK2 kinase working solution, 4×Streptavidin-XL665 working solution, and 4×STK-Ab-Cryptate 2 detection solution. Then the assay was performed according to the following procedure.
A solution of a compound at a concentration of 10000 nM was prepared with the 1×kinase buffer containing 2.5% DMSO. Gradient dilution of the solution of the compound was performed with the kinase buffer containing DMSO, so as to obtain solutions of a test compound at 9 different concentrations. In addition to wells of test compounds, a positive well (containing all the reagents except the compound) and a negative well (containing all the reagents except the test compound and kinase) were set. Except for the control wells (positive and negative wells), a solution of a test compound (4 μL) was added to each of the reaction wells, and a solution of 2.5% DMSO was added to the control wells. Then the substrate ([…], 2 μL. 5×STK-S2 substrate working solution) was added to each of the reaction wells. The 5×ROCK2 kinase working solution (2 μL, containing 1.4 ng ROCK2 kinase) was added to each of the reaction wells except for the negative well, the volume of which was made up with the 1×kinase buffer (2 μL). The 5×ATP working solution (2 μL) was added to each of the reaction wells, and the mixtures were incubated at room temperature for 2 hours. After the kinase reaction was complete, the 4×Streptavidin-XL665 working solution was added to each of the reaction wells, the solutions were mixed, followed by immediate addition of the 4×STK-Ab-Cryptate 2 detection solution (5 μL), and the mixtures were incubated at room temperature for 1 hour. The fluorescence signal was read on ENVISION (Perkinelmer) (excitation wavelength: 320 nm, and emission wavelength: 665 nm and 615 nm). The inhibitory rate in each well was calculated based on the fluorescence intensity value: ER (Emission Ratio)=(fluorescence intensity at 665 nm/fluorescence intensity at 615 nm); inhibitory rate=(ERpositive−ERtest compound)/(ERpositive−ERnegative)*100%. Curves were plotted and fitted to obtain the median inhibitory concentration (IC50) of each teat compound with the PRISM 5.0 software.
According to a biological test method similar to the above, the IC50 values of the compounds on ROCK1 were tested.

Sequence of ROCK1 (Q13464 whole entry, species assumed): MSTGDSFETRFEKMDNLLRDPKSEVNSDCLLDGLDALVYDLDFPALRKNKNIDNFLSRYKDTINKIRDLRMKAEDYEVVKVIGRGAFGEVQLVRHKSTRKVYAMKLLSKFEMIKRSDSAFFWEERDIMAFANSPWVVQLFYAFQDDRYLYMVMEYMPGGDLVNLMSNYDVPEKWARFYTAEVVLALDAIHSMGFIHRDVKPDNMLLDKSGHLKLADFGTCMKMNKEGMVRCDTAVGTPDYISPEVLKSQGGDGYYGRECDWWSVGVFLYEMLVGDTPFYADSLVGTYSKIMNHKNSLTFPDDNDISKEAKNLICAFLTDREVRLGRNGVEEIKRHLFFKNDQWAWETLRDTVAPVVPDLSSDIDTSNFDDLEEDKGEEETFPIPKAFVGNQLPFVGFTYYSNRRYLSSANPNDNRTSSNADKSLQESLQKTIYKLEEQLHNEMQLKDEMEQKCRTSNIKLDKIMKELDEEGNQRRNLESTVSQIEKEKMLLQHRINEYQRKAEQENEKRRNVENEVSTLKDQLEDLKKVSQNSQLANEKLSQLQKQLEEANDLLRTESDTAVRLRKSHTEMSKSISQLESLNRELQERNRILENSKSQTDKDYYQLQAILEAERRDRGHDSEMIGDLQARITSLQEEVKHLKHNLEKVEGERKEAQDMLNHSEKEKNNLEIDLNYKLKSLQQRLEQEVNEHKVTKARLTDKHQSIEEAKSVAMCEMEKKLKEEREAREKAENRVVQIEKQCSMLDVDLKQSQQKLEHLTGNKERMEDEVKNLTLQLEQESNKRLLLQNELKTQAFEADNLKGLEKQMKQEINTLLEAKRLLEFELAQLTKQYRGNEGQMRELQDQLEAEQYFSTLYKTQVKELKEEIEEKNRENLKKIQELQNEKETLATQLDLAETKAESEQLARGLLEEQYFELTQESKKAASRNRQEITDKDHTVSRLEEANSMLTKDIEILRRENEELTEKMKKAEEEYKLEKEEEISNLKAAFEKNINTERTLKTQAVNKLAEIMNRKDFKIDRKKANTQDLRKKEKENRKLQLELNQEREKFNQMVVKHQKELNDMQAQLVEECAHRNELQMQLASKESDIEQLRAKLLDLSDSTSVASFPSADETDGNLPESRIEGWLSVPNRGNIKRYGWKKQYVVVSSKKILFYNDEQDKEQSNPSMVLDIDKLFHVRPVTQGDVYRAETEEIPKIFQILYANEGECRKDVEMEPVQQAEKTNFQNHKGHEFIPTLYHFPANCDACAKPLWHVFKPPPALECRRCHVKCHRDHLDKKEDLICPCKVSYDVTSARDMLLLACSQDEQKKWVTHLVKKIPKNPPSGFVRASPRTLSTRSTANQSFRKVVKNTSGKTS

| IC50 | SMILES |
| --- | --- |
| 4.84 µM | CC(C)NC(=O)C1Cc2ccc(-c3nccc(Nc4ccc5[nH]ncc5c4)n3)cc2N1 (centres unmarked) [TDI01292, 6-(4-((1H-indazol-5-yl)amino)-pyrimidin-2-yl)-N-isopropyl-indoline-2-carboxamide] |
| > 10 µM | CN(C)C(=O)c1cc2ccc(-c3nccc(Nc4ccc(-c5cn[nH]c5)cc4)n3)cc2[nH]1 [TDI01294, 6-(4-((4-(1H-pyrazol-4-yl)phenyl)-amino)-pyrimidin-2-yl)-N,N-dimethyl-1H-indole-2-carboxamide] |
| 2.87 µM | CNC(=O)c1cc2ccc(-c3nccc(Nc4ccc(-c5cn[nH]c5)cc4)n3)cc2[nH]1 [TDI01296, 6-(4-((4-(1H-pyrazol-4-yl)phenyl)-amino)-pyrimidin-2-yl)-N-methyl-1H-indole-2-carboxamide] |
| > 10 µM | O=C(Nc1ccccn1)c1cc2ccc(-c3nccc(Nc4ccc5[nH]ncc5c4)n3)cc2[nH]1 [TDI01311, 6-(4-((1H-indazol-5-yl)amino)pyrimidin-2-yl)-N-(pyridin-2-yl)-1H-indole-2-carboxamide] |
| 1.84 µM | CC(C)NC(=O)N1Cc2ccc(-c3nccc(Nc4ccc5[nH]ncc5c4)n3)cc2C1 [TDI01312, 5-(4-((1H-indazol-5-yl)amino)pyrimidin-2-yl)-N-isopropylisoindoline-2-carboxamide] |
| 2.15 µM | COc1ccc(NC(=O)c2cc3ccc(-c4nccc(Nc5ccc6[nH]ncc6c5)n4)cc3[nH]2)cn1 [TDI01315, 6-(4-((1H-indazol-5-yl)amino)-pyrimidin-2-yl)-N-(6-methoxy-pyridin-3-yl)-1H-indole-2-carboxamide] |
| 0.999 µM | CN1CCC(n2cc(NC(=O)c3cc4ccc(-c5nccc(Nc6ccc7[nH]ncc7c6)n5)cc4[nH]3)cn2)CC1 [TDI01316, 6-(4-((1H-indazol-5-yl)amino)-pyrimidin-2-yl)-N-(1-(1-methyl-piperidin-4-yl)-1H-pyrazol-4-yl)-1H-indole-2-carboxamide] |
| 0.274 µM | CN1CCC(N2CCCC(NC(=O)c3cc4ccc(-c5nccc(Nc6ccc7[nH]ncc7c6)n5)cc4[nH]3)C2)CC1 (centres unmarked) [TDI01318, 6-(4-((1H-indazol-5-yl)amino)-pyrimidin-2-yl)-N-(1′-methyl-[1-4′-bipiperidin]-3-yl)-1H-indole-2-carboxamide] |
| 1.74 µM | O=C(NC1CC1)c1cc2ccc(-c3nccc(Nc4ccc(-c5cn[nH]c5)cc4)n3)cc2[nH]1 [TDI01324, 6-(4-((4-(1H-pyrazol-4-yl)phenyl)-amino)-pyrimidin-2-yl)-N-cyclopropyl-1H-indole-2-carboxamide] |
| 7.93 µM | O=C(c1cc2ccc(-c3nccc(Nc4ccc(-c5cn[nH]c5)cc4)n3)cc2[nH]1)N1CCC1 [TDI01330, (6-(4-((4-(1H-pyrazol-4-yl)phenyl)-amino)-pyrimidin-2-yl)-1H-indol-2-yl)(azetidin-1-yl)methanone] |
| > 10 µM | O=C(c1cc2ccc(-c3nccc(Nc4ccc(-c5cn[nH]c5)cc4)n3)cc2[nH]1)N1CCOCC1 [TDI01331, (6-(4-((4-(1H-pyrazol-4-yl)phenyl)-amino)-pyrimidin-2-yl)-1H-indol-2-yl)-(morpholino)-methanone] |
| 6.27 µM | CCN(CC)C(=O)c1cc2ccc(-c3nccc(Nc4ccc(-c5cn[nH]c5)cc4)n3)cc2[nH]1 [TDI01332, 6-(4-((4-(1H-pyrazol-4-yl)phenyl)-amino)-pyrimidin-2-yl)-N,N-diethyl-1H-indole-2-carboxamide] |
| 2.76 µM | O=C(NC1CCOC1)c1cc2ccc(-c3nccc(Nc4ccc(-c5cn[nH]c5)cc4)n3)cc2[nH]1 (centres unmarked) [TDI01337, 6-(4-((4-(1H-pyrazol-4-yl)phenyl)-amino)-pyrimidin-2-yl)-N-(tetrahydro-furan-3-yl)-1H-indole-2-carboxamide] |
| 1.8 µM | O=C(NC1CCOCC1)c1cc2ccc(-c3nccc(Nc4ccc(-c5cn[nH]c5)cc4)n3)cc2[nH]1 [TDI01338, 6-(4-((4-(1H-pvrazol-4-yl)phenyl)-amino)-pyrimidin-2-yl)-N-(tetrahydro-2H-pyran-4-yl)-1H-indole-2-carboxamide] |
| 7.11 µM | CN1CCN(C(=O)c2cc3ccc(-c4nccc(Nc5ccc(-c6cn[nH]c6)cc5)n4)cc3[nH]2)CC1 [TDI01343, (6-4(-((4-(1H-pyrazol-4-yl)phenyl)-amino)-pyrimidin-2-yl)-1H-indol-2-yl)(4-methyl-piperazin-1-yl)methanone] |
| 4.21 µM | CN(C(=O)c1cc2ccc(-c3nccc(Nc4ccc(-c5cn[nH]c5)cc4)n3)cc2[nH]1)C(CO)CO [TDI01344-2A, 6-(4-((4-(1H-pyrazol-4-yl)phenyl)-amino)-pyrimidin-2-yl)-N-(1,3-dihydroxy-propan-2-yl)-N-methyl-1H-indole-2-carboxamide] |
| 3.91 µM | CN(C(=O)c1cc2ccc(-c3nccc(Nc4ccc(-c5cn[nH]c5)cc4)n3)cc2[nH]1)C1CCNC1 (centres unmarked) [TDI01345, 6-(4-((4-(1H-pyrazol-4-yl)phenyl)-amino)-pyrimidin-2-yl)-N-methyl-N-(pyrrolidin-3-yl)-1H-indole-2-carboxamide] |
| 5.58 µM | CN(C(=O)c1cc2ccc(-c3nccc(Nc4ccc5[nH]ncc5c4)n3)cc2[nH]1)c1ccnnc1 [TDI01347, 6-(4-((1H-indazol-5-yl)amino)-pyrimidin-2-yl)-N-methyl-N-(pyridazin-4-yl)-1H-indole-2-carboxamide] |
| > 10 µM | O=C(Nc1ccncc1Cl)c1cc2ccc(-c3nccc(Nc4ccc(-c5cn[nH]c5)cc4)n3)cc2[nH]1 [TDI01354, 6-(4-((4-(1H-pyrazol-4-yl)phenyl)-amino)-pyrimidin-2-yl)-N-(3-chloropyridin-4-yl)-1H-indole-2-caiboxamide] |
| > 10 µM | CN(CC(F)(F)F)C(=O)c1cc2ccc(-c3nccc(Nc4ccc(-c5cn[nH]c5)cc4)n3)cc2[nH]1 [TDI01355, 6-(4-((4-(1H-pyrazol-4-yl)phenyl)-amino)-pyrimidin-2-yl)-N-methyl-N-(2,2,2-trifluoroethyl)-1H-indole-2-carboxamide] |
| > 10 µM | O=C(Nc1ccncc1)c1cc2ccc(-c3nccc(Nc4ccc(-c5cn[nH]c5)cc4)n3)cc2[nH]1 [TDI01363, 6-(4-((4-(1H-pyrazol-4-yl)phenyl)-amino)-pyrimidin-2-yl)-N-(pyridin-4-yl)-1H-indole-2-carboxamide] |
| > 10 µM | CN(C)C(=O)N1Cc2ccc(-c3nccc(Nc4ccc(-c5cn[nH]c5)cc4)n3)cc2C1 [TDI01366, 5-(4-((4-(1H-pyrazol-4-yl)phenyl)amino)pyrimidin-2-yl)-N,N-dimethylisoindoline-2-carboxamide] |
| 1.49 µM | CC(C)NC(=O)c1cc2ccc(-c3nc(Nc4ccc(-c5cn[nH]c5)cc4)c4sccc4n3)cc2[nH]1 [TDI01370, 6-(4-((4-(1H-pyrazol-4-yl)phenyl)-amino)-thieno[3,2-d]pyrimidin-2-yl)-N-isopropyl-1H-indole-2-carboxamide] |
| > 10 µM | CNC(=O)c1cc2ccc(-c3nc(Nc4ccc(-c5cn[nH]c5)cc4)c4sccc4n3)cc2[nH]1 [TDI01379, 6-(4-((4-(1H-pyrazol-4-yl)phenyl)-amino)thieno-[3.2-d]-pyrimidin-2-yl)-N-methyl-1H-indole-2-carboxamide] |
| 4.11 µM | CN(C(=O)c1cc2ccc(-c3nccc(Nc4ccc(-c5cn[nH]c5)cc4)n3)cc2[nH]1)C1CCOCC1 [TDI01381, 6-(4-((4-(1H-pyrazol-4-yl)phenyl)amino)pyrimidin-2-yl)-N-methyl-N-(tetrahydro-2H-pyran-4-yl)-1H-indole-2-carboxamide] |
| > 10 µM | O=C(Nc1ccncc1)c1cc2ccc(-c3nccc(Nc4ccc(-c5cn[nH]c5)cc4)n3)cc2s1 [TDI01393] |
